Test system: Fragile X (Fmr1) knockout mouse
Assay: Plasma metabolomics after weekly suramin or saline, Fragile X model
Assay type: in vivo
Conditions: for Suramin Treatment Effect (KO-Sur/KO-Sal): Fragile X KO
Description: Samples were analyzed on an AB SCIEX QTRAP 5500 triple quadrupole mass spectrometer equipped with a Turbo V electrospray ionization (ESI) source, Shimadzu LC-20A UHPLC system, and a PAL CTC autosampler (AB ACIEX, Framingham, Mass., USA). […] Plasma was separated by centrifugation at 600 g×5 minutes at 20° C. within one hour of collection. Fresh lithium-heparin plasma was transferred to labeled tubes for storage at −80° C. for analysis. Typically 45 μl of plasma was thawed on ice and transferred to a 1.7 ml Eppendorf tube. Two and one-half (2.5) μl of a cocktail containing 35 commercial stable isotope internal standards, and 2.5 μl of 310 stable isotope internal standards that were custom-synthesized in E. coli and S. cerevisiae by metabolic labeling with ^13C-glucose and ^13C-bicarbonate, were added, mixed, and incubated for 10 min at room temperature to permit small molecules and vitamins in the internal standards to associate with plasma binding proteins. Macromolecules (protein, DNA, RNA, etc.) were precipitated by extraction with 4 volumes (200 μl) of cold (−20° C.), acetonitrile:methanol (50:50) (LCMS grade, Cat#LC015-2.5 and GC230-4, Burdick & Jackson, Honeywell), vortexed vigorously, and incubated on crushed ice for 10 min, then removed by centrifugation at 16,000 g×10 min at 4° C. The supernatants containing the extracted metabolites and internal standards in the resulting 40:40:20 solvent mix of acetonitrile:methanol:water were transferred to labeled cryotubes and stored at −80° C. for LC-MS/MS (liquid chromatography-tandem mass spectrometry) analysis.
LC-MS/MS analysis was performed by multiple reaction monitoring (MRM) under Analyst v1.6.1 (AB SCIEX, Framingham, Mass., USA) software control in both negative and positive mode with rapid polarity switching (50 ms). Nitrogen was used for curtain gas (set to 30), collision gas (set to high), ion source gas 1 and 2 (set to 35). The source temperature was 500° C. Spray voltage was set to −4500 V in negative mode and 5500 V in positive mode. The values for Q1 and Q3 mass-to-charge ratios (m/z), declustering potential (DP), entrance potential (EP), collision energy (CE), and collision cell exit potential (CXP) were determined and optimized for each MRM for each metabolite. Ten microliters of extract was injected by PAL CTC autosampler into a 250 mm×2 mm, 5 μm Luna NH2 aminopropyl HPLC column (Phenomenex, Torrance, Calif., USA) held at 25° C. for chromatographic separation. […] The flow rate was 300 μl/min. All the samples were kept at 4° C. during analysis. The chromatographic peaks were identified using MultiQuant (v3.0, AB SCIEX), confirmed by manual inspection, and the peak areas integrated. The median of the peak area of stable isotope internal standards was calculated and used for the normalization of metabolites concentration across the samples and batches. Prior to multivariate and univariate analysis, the data were log-transformed.
A rendering of mammalian intermediary metabolism was constructed in Cytoscape v 3.1.1 (see, e.g., [http://]www.cytoscape.org/). […] Nodes in the Cytoscape network represent metabolites within the pathways and have been colored according to the Z-score. The Z-score was computed as the arithmetic difference between the mean concentration of each metabolite in the KO-Sur treatment group and the KO-Sal control group, divided by the standard deviation in the controls. Node colors were arranged on a red-green color scale with green representing −2.00 Z-score, red representing +2.00 Z-score, and with a zero (0) Z-score represented as white.
Group means and standard error of the means (SEM) are reported. Behavioral data were analyzed by two-way ANOVA and one-way ANOVAs (GraphPad Prism 5.0d, GraphPad Software Inc., La Jolla, Calif., USA, or Stata/SE v12.1, StataCorp, College Station, Tex., USA). Pair-wise post hoc testing was performed by the method of Tukey or Newman-Keuls. Significance was set at p<0.05.

`Cc1ccc(C(=O)Nc2ccc(S(=O)(=O)O)c3cc(S(=O)(=O)O)cc(S(=O)(=O)O)c23)cc1NC(=O)c1cccc(NC(=O)Nc2cccc(C(=O)Nc3cc(C(=O)Nc4ccc(S(=O)(=O)O)c5cc(S(=O)(=O)O)cc(S(=O)(=O)O)c45)ccc3C)c2)c1` [Suramin, suramin] was tested, and the “Suramin Treatment Effect (KO-Sur/KO-Sal)” value (Bile Salt Metabolism, plasma) was “Increased”, the “Suramin Treatment Effect (KO-Sur/KO-Sal)” value (Branch Chain Amino Acid Metabolism, plasma) was “Increased” and the “Suramin Treatment Effect (KO-Sur/KO-Sal)” value (Cardiolipin Metabolism, plasma) was “Decreased”. For the same molecule, the “Suramin Treatment Effect (KO-Sur/KO-Sal)” value (Cholesterol, Cortisol, Non-Gonadal Steroid Metabolism, plasma) was 2/2 Increased, the “Suramin Treatment Effect (KO-Sur/KO-Sal)” value (Eicosanoid and Resolvin Metabolism, plasma) was 4/6 Increased and the “Suramin Treatment Effect (KO-Sur/KO-Sal)” value (Fatty Acid Oxidation and Synthesis, plasma) was 9/9 Decreased. For the same molecule, the “Suramin Treatment Effect (KO-Sur/KO-Sal)” value (Ganglioside Metabolism, plasma) was 6/6 Increased, the “Suramin Treatment Effect (KO-Sur/KO-Sal)” value (Glycolysis and Gluconeogenesis, plasma) was 2/2 Decreased and the “Suramin Treatment Effect (KO-Sur/KO-Sal)” value (Isoleucine, Valine, Threonine, or Methionine Metabolism, plasma) was “Increased”. For the same molecule, the “Suramin Treatment Effect (KO-Sur/KO-Sal)” value (Krebs Cycle, plasma) was “Increased”, the “Suramin Treatment Effect (KO-Sur/KO-Sal)” value (Microbiome Metabolism, plasma) was 2/3 Decreased and the “Suramin Treatment Effect (KO-Sur/KO-Sal)” value (Nitric Oxide, Superoxide, Peroxide Metabolism, plasma) was “Increased”. The “Suramin Treatment Effect (KO-Sur/KO-Sal)” value (Pentose Phosphate, Gluconate Metabolism, plasma) was “Increased”, the “Suramin Treatment Effect (KO-Sur/KO-Sal)” value (Phospholipid Metabolism, plasma) was 6/6 Increased and the “Suramin Treatment Effect (KO-Sur/KO-Sal)” value (Purine Metabolism, plasma metabolites with VIP >=1.5, weekly suramin vs saline) was 4/5 Decreased. For the same molecule, the “Suramin Treatment Effect (KO-Sur/KO-Sal)” value (Pyrimidine Metabolism, plasma) was “Decreased”, the “Suramin Treatment Effect (KO-Sur/KO-Sal)” value (SAM, SAH, Methionine, Cysteine, Glutathione Metabolism, plasma) was 3/3 Increased and the “Suramin Treatment Effect (KO-Sur/KO-Sal)” value (Sphingolipid Metabolism, plasma) was 3/5 Decreased. For the same molecule, the “Suramin Treatment Effect (KO-Sur/KO-Sal)” value (Vitamin B3 (Niacin, NAD+) Metabolism, plasma) was 1/2 Increased, the “Suramin Treatment Effect (KO-Sur/KO-Sal)” value (Vitamin B6 (Pyridoxine) Metabolism, plasma) was “Increased” and the “Suramin Treatment Effect (KO-Sur/KO-Sal)” value (all 20 of 60 Pathways Dysregulated, top 58 metabolites, plasma) was 33/58 Increased. The “acyl-carnitine species with generalized decrease” value (plasma, Fmr1 KO mice, suramin treatment) was 9 of 9 and the “biochemical pathways with pharmacometabolomic changes” value (plasma, Fmr1 KO mice, weekly suramin) was 20 of 60.
